# Experimental data published in ChEMBL document CHEMBL4387706, “Discovery of Novel Spiroindoline Derivatives as Selective Tankyrase Inhibitors” (J Med Chem, 2019).
# What was measured:
# Tankyrase 1/2 = target: T1, Tankyrase 1/2 (Homo sapiens, UniProt Q9H2K2+O95271)
# T1 sequence (Q9H2K2 whole entry): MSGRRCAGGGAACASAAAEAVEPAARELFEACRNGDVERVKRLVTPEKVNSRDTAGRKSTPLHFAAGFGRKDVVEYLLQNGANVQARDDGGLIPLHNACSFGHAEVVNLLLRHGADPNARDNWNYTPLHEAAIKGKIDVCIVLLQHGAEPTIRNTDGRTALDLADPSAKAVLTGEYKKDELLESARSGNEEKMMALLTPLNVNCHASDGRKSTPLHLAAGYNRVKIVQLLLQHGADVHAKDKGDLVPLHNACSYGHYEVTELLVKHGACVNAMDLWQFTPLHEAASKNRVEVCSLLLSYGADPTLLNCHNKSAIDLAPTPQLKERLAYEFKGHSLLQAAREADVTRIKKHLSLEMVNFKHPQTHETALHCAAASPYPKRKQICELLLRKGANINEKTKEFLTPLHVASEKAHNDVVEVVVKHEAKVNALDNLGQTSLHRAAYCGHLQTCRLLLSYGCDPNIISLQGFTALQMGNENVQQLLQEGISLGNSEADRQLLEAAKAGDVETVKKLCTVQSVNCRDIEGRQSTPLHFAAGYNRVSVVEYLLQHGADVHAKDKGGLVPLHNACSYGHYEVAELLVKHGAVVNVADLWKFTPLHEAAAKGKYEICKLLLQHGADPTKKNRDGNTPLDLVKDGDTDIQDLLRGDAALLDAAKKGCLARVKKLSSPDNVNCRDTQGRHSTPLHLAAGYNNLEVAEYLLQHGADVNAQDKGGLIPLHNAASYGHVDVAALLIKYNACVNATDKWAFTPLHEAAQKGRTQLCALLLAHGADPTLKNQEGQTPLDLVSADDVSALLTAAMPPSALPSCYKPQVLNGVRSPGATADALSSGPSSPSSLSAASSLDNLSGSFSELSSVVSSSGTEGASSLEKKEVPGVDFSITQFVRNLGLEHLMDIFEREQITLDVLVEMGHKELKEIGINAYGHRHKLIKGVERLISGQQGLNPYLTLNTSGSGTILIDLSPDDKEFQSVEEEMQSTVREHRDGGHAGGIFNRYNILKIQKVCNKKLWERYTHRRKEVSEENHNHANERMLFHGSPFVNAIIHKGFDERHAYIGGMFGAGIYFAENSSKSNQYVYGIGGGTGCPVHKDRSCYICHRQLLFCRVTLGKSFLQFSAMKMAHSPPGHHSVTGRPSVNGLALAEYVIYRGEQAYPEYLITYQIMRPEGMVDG
# T1 sequence (O95271 whole entry): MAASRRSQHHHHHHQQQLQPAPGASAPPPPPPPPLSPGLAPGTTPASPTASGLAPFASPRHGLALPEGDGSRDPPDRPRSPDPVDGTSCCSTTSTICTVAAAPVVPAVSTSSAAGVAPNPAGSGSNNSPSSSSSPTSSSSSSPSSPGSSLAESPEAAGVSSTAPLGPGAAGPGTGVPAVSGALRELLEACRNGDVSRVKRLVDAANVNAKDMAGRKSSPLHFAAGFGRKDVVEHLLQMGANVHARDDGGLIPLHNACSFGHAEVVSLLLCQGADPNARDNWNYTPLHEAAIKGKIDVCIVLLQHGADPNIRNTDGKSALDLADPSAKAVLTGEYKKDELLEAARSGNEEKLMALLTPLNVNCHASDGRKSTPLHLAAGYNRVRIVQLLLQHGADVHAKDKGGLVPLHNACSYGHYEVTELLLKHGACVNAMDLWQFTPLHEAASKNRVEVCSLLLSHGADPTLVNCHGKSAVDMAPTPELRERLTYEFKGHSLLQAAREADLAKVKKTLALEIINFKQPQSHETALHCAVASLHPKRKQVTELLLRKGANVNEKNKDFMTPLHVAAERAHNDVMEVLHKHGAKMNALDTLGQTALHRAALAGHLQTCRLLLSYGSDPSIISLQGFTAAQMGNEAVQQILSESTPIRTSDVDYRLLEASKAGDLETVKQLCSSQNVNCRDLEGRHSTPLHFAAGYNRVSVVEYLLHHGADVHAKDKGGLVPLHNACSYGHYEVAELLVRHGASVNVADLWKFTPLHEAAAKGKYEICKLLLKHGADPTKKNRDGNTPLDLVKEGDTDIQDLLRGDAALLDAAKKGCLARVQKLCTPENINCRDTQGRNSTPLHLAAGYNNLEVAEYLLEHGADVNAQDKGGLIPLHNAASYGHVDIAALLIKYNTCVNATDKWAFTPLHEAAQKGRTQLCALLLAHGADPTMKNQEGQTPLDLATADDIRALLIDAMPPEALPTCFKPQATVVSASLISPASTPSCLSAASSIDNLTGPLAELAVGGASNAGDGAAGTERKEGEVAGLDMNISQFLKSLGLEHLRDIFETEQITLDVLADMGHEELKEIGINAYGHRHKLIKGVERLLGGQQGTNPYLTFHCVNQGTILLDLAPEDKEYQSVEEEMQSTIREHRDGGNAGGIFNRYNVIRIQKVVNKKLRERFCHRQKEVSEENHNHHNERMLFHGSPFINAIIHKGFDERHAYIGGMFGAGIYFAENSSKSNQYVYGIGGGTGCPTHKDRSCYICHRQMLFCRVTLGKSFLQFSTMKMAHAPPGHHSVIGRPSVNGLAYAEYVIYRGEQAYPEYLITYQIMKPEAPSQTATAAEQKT
# Description: Inhibition of TNKS/TNKS2 (unknown origin) expressed in human DLD1 cells assessed as reduction in Wnt-signaling measured after 24 hrs by TCF-luciferase reporter gene assay
# [1] = target: T2, Poly [ADP-ribose] polymerase tankyrase-1 (Homo sapiens, UniProt O95271)
# T2 sequence (O95271 whole entry): T1 sequence (O95271 whole entry)
# Description: Inhibition of recombinant human N-terminal TEV cleavage site-fused/FLAG-poly his-tagged TNKS SAM-PARP domain (1024 to 1327 residues) expressed in Escherichia coli assessed as reduction in auto-PARylation preincubated for 10 mins followed by biotinylated-NAD+ addition and measured after 45 mins by ELISA
# [2] = target: T3, Poly [ADP-ribose] polymerase tankyrase-2 (Homo sapiens, UniProt Q9H2K2)
# T3 sequence (Q9H2K2 whole entry): T1 sequence (Q9H2K2 whole entry)
# Description: Inhibition of recombinant human N-terminal TEV cleavage site-fused/FLAG-poly his-tagged TNKS2 SAM-PARP domain (613 to 1166 residues) expressed in Escherichia coli assessed as reduction in auto-PARylation preincubated for 10 mins followed by biotinylated-NAD+ addition and measured after 45 mins by ELISA
# physchem = conditions: phosphate buffer, pH 7.4
# COLO 320DM = assay: cells; conditions: Homo sapiens, 96 h
# Description: Antiproliferative activity against human COLO320DM cells assessed as inhibition of cell growth measured after 4 days by CellTiter-Glo assay
Compound,IC50 (Tankyrase 1/2) [nM],IC50 [1] [nM],IC50 [2] [nM],"solubility at 1 h, 200 µM (physchem) [µg/mL]",GI50 (COLO 320DM) [nM]
O=C1Nc2cccc(F)c2C12CCN(c1nc3c(c(=O)[nH]1)CCCC3)CC2,31.1,5.8,4.7,3.1,2300
COc1ccccc1N1CCN(c2nc3c(c(=O)[nH]2)CNCC3)CC1,> 10000,7780,6980,66.4,
O=c1[nH]c(N2CCC3(CC2)CNc2cc(Cl)cc(Cl)c23)nc2c1CCCC2,609,7.5,10.4,11,7500
O=c1[nH]c(N2CCC3(CC2)CNc2cc(F)cc(F)c23)nc2c1CCCC2,110,5.4,3.3,6.3,5200
O=C1Nc2cc(F)cc(F)c2C12CCN(c1nc3c(c(=O)[nH]1)CCCC3)CC2,43.9,6.4,7.5,0.8,4200
O=c1[nH]c(N2CCC3(CC2)CNc2cccc(F)c23)nc2c1CCCC2,72.4,4.4,2.8,4.2,3300
N#Cc1cccc2c1C1(CCN(c3nc4c(c(=O)[nH]3)CCCC4)CC1)C(=O)N2,496,16.8,26.8,5.3,20400
Oc1nc(N2CCN(c3ccccc3)CC2)nc2c1CCCC2,1536,135,58.9,4.9,
COc1ccccc1N1CCN(c2nc3c(c(=O)[nH]2)CC(C)(C)CC3)CC1,> 10000,> 20000,> 20000,2.4,
O=c1[nH]c(N2CCC3(CC2)CNc2cc(Cl)ccc23)nc2c1CCCC2,818,8.4,5.8,9.2,6900
O=c1[nH]c(N2CCC3(CC2)CNc2cc(F)ccc23)nc2c1CCCC2,657,16.7,7.6,3.2,10300
O=c1[nH]c(N2CCC3(CC2)CNc2cccc(Cl)c23)nc2c1CCCC2,247,6.4,5.3,2.6,4900
COc1ccccc1N1CCC(c2nc3c(c(=O)[nH]2)CCCC3)CC1,5401,14300,6420,,19600
O=C1Nc2cccc(Cl)c2C12CCN(c1nc3c(c(=O)[nH]1)CCCC3)CC2,21.5,10.2,4.9,2.8,5000
O=c1[nH]c(N2CCC3(CC2)CNc2cccc(Br)c23)nc2c1CCCC2,454,16,15.6,8.9,10400
COc1ccccc1N1CCN(c2nc3c(c(=O)[nH]2)CC(C)CC3)CC1 (stereo not given),7282,1350,3480,1.8,
COc1ccccc1N1CCN(C2=NC3CCCCCC3C(=O)N2)CC1 (stereo not given),> 10000,,,,
COc1ccccc1N1CCN(c2nc3c(c(=O)[nH]2)CN(C)CC3)CC1,> 10000,> 20000,> 20000,69.7,
N#Cc1cccc2c1C1(CCN(c3nc4c(c(=O)[nH]3)CCCC4)CC1)CN2,799,9.9,18.5,69.2,23600
O=C1Nc2cccc(Br)c2C12CCN(c1nc3c(c(=O)[nH]1)CCCC3)CC2,91.2,5.8,13.4,1.9,8800
O=C1Nc2cc(F)ccc2C12CCN(c1nc3c(c(=O)[nH]1)CCCC3)CC2,369,11,12,62.9,15000
O=C1Nc2cc(Cl)ccc2C12CCN(c1nc3c(c(=O)[nH]1)CCCC3)CC2,623,11.1,14.4,1.8,19900
O=C1Nc2cc(Cl)cc(Cl)c2C12CCN(c1nc3c(c(=O)[nH]1)CCCC3)CC2,533,5.3,7.1,15.7,21400
